Data: paper PMC12298351, “Novel 3,19-(N-Phenyl-3-(4-fluorophenyl)-pyrazole) Acetal of Andrographolide Promotes Cell Cycle Arrest and Apoptosis in MDA-MB-231 Breast Cancer Cells” (Pharmaceuticals, 2025)

What was measured:
[1] = system: M14; type: cell-based; conditions: M14, Melanoma
[2] = system: BT-549; type: cell-based; conditions: BT-549, Breast
[3] = DPPH radical scavenging assay; conditions: 25 µM test compound, 0.1 mM DPPH, acetonitrile, 30 min
Summary of the method: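 Compounds at 25 µM in acetonitrile mixed 1:2 with 0.1 mM DPPH in acetonitrile, kept 30 min in the dark at room temperature. Absorbance read at 517 nm; % scavenging = (Ac − As)/Ac × 100, Ac being DPPH blank. Ascorbic acid positive control.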

[4] = system: HL-60(TB)
[5] = system: MOLT-4; conditions: MOLT-4, Leukemia
[6] = system: SR
[7] = system: A549/ATCC
[8] = system: HOP-62
[9] = system: NCI-H23
[10] = system: HCC-2998; conditions: HCC-2998, Colon
[11] = system: HT29; conditions: HT29, Colon
[12] = system: KM12; conditions: KM12, Colon
[13] = system: SW-620; conditions: SW-620, Colon
[14] = system: SF-268; conditions: SF-268, CNS
[15] = system: LOX IMVI
[16] = system: MALME-3M; conditions: Melanoma
[17] = system: SK-MEL-2; conditions: SK-MEL-2, Melanoma
[18] = system: SK-MEL-28; conditions: SK-MEL-28, Melanoma
[19] = system: SK-MEL-5; conditions: SK-MEL-5, Melanoma
[20] = system: IGROV1; conditions: IGROV1, Ovarian
[21] = system: OVCAR-5; conditions: OVCAR-5, Ovarian
[22] = system: ACHN
[23] = system: CAKI-1; conditions: CAKI-1, Renal
[24] = system: DU-145; conditions: DU-145, Prostate
[25] = system: MCF7; conditions: MCF7, Breast
[26] = system: MDA-MB-231
[27] = system: T-47D
[28] = system: MDA-MB-468; conditions: MDA-MB-468, Breast
[29] = read-out: 50% lethal concentration (LC50), Leukemia
[30] = read-out: 50% lethal concentration (LC50)

C=C1CCC2C3(C)COC(c4cn(-c5ccccc5)nc4-c4ccc(C)cc4)OC3CCC2(C)C1CC=C1C(=O)OCC1O (stereo not drawn) [1i]
GI50 [1]: 1.76 µM
Total growth inhibition (TGI) [1]: 3.61 µM
GI50 [2]: 1.2 µM
Total growth inhibition (TGI) [2]: 3.02 µM
% DPPH radical scavenging activity [3]: 56.31%
GI50 ([4]; Leukemia): 2.17 µM
Total growth inhibition (TGI) ([4]; Leukemia): > 100 µM
CC50 [4, 29]: > 100 µM
GI50 [5]: 2.11 µM
Total growth inhibition (TGI) [5]: > 100 µM
CC50 [5, 30]: > 100 µM
GI50 ([6]; Leukemia): 2.74 µM
Total growth inhibition (TGI) ([6]; Leukemia): > 100 µM
CC50 [6, 29]: > 100 µM
Total growth inhibition (TGI) ([7]; Non-Small Cell Lung): 13.5 µM
GI50 ([7]; Non-Small-Cell Lung): 3.09 µM
CC50 ([7]; read-out: 50% lethal concentration (LC50), Non-Small Cell Lung): > 100 µM
Total growth inhibition (TGI) ([8]; HOP-62, Non-Small Cell Lung): 4.44 µM
GI50 ([8]; HOP-62, Non-Small-Cell Lung): 2.12 µM
CC50 ([8]; read-out: 50% lethal concentration (LC50), HOP-62, Non-Small Cell Lung): 9.27 µM
Total growth inhibition (TGI) ([9]; NCI-H23, Non-Small Cell Lung): 3.5 µM
GI50 ([9]; NCI-H23, Non-Small-Cell Lung): 1.76 µM
CC50 ([9]; read-out: 50% lethal concentration (LC50), NCI-H23, Non-Small Cell Lung): 6.96 µM
GI50 [10]: 1.63 µM
Total growth inhibition (TGI) [10]: 3.06 µM
GI50 [11]: 1.9 µM
Total growth inhibition (TGI) [11]: 4.58 µM
CC50 [11, 30]: > 100 µM
GI50 [12]: 3.01 µM
Total growth inhibition (TGI) [12]: 7.93 µM
GI50 [13]: 5.42 µM
CC50 [13, 30]: > 100 µM
GI50 [14]: 2.61 µM
Total growth inhibition (TGI) [14]: 7.58 µM
CC50 [14, 30]: 55.4 µM
GI50 ([15]; Melanoma): 1.43 µM
Total growth inhibition (TGI) ([15]; Melanoma): 2.74 µM
CC50 ([15]; read-out: 50% lethal concentration (LC50), Melanoma): 5.25 µM
GI50 [16]: 2.46 µM
Total growth inhibition (TGI) [16]: 4.28 µM
GI50 [17]: 1.79 µM
Total growth inhibition (TGI) [17]: 3.28 µM
GI50 [18]: 1.74 µM
Total growth inhibition (TGI) [18]: 3.33 µM
CC50 [18, 30]: 6.39 µM
GI50 [19]: 1.59 µM
Total growth inhibition (TGI) [19]: 2.96 µM
CC50 [19, 30]: 5.49 µM
GI50 [20]: 3.95 µM
Total growth inhibition (TGI) [20]: 12.5 µM
CC50 [20, 30]: > 100 µM
GI50 [21]: 1.93 µM
Total growth inhibition (TGI) [21]: 4.59 µM
CC50 [21, 30]: 40.5 µM
GI50 ([22]; Renal): 1.83 µM
Total growth inhibition (TGI) ([22]; Renal): 3.5 µM
CC50 ([22]; read-out: 50% lethal concentration (LC50), Renal): 6.67 µM
GI50 [23]: 1.71 µM
Total growth inhibition (TGI) [23]: 3.37 µM
CC50 [23, 30]: 6.64 µM
GI50 [24]: 2.05 µM
Total growth inhibition (TGI) [24]: 4.19 µM
CC50 [24, 30]: 8.55 µM
GI50 [25]: 1.57 µM
Total growth inhibition (TGI) [25]: 4.6 µM
CC50 [25, 30]: 5.4 µM
GI50 ([26]; MDA-MB-231, Breast): 1.7 µM
Total growth inhibition (TGI) ([26]; MDA-MB-231/ATCC, Breast): 3.28 µM
CC50 ([26]; read-out: 50% lethal concentration (LC50), MDA-MB-231/ATCC, Breast): 6.33 µM
GI50 ([27]; Breast): 1.14 µM
Total growth inhibition (TGI) ([27]; Breast): 3.55 µM
CC50 ([27]; read-out: 50% lethal concentration (LC50), Breast): > 100 µM
GI50 [28]: 1.85 µM
Total growth inhibition (TGI) [28]: 3.45 µM
CC50 [28, 30]: 6.43 µM
